In US8609836B2, “4-aryl-2-anilino-pyrimidines” (Janssen Pharmaceutica NV, priority 2008, dated 2013):

Experiments:
[1] = molecular target: GSK3β (h) (Homo sapiens, UniProt P49841); experiment: GSK-3β human kinase inhibition, SPA; type: biochemical; details: read-out: GSK3b pIC50 (converted)
Outline: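 Radiometric: 33P-labelled peptide captured on streptavidin SPA beads after EDTA stop and imaged on Leadseeker. Reaction ran 1 h at RT, 1 μM cold ATP with 2 nM [γ-33P]ATP, 1 μM biotin-peptide substrate, human GSK3β 1 μg/ml, pH 7.4 Tris buffer.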

[2] = molecular target: PLK4 (h) (Homo sapiens, UniProt O00444); experiment: PLK-4 human kinase inhibition, scintillation proximity assay (SPA); type: biochemical; details: read-out: PLK4 pIC50 (converted)
[3] = test system: MDA-MB-231; experiment: Cellular proliferation assay (Alamar blue), MDA-MB-231; type: cell-based; details: Homo sapiens, 10% FCS, 72 hours with compound, Alamar blue 24 h, read-out: MDA/MB231 (cellular proliferation assay, Table 4) (converted)
Outline: (§1)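 After a 24 h compound-free attachment period, cells in 10% FCS medium are treated for 72 h at 37° C. Resazurin conversion is then quantified by fluorescence, with dye incubation lasting 4 h for HCT-116, 6 h for U87-MG and 24 h for A2780 or MDA-MB-231.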

[4] = test system: HCT-116; experiment: Cellular proliferation assay (Alamar blue), HCT-116; type: cell-based; details: Homo sapiens, 10% FCS, 72 hours with compound, Alamar blue 4 h
Outline: as §1

[5] = molecular target: CDK4/CyclinD1 (h) (Homo sapiens, UniProt P11802); experiment: CDK4/CyclinD1 human kinase inhibition, SPA with GST-pRb substrate; type: biochemical; details: read-out: CDK4 pIC50 (converted)
Description: The in vitro inhibition of a panel of kinases was assessed using either the scintillation proximity assay (SPA) as described by Cook, N. D. et al., Advances in Experimental Medicine and Biology (1991), 36; p. 525-528.
In the SPA technology the activity of the kinase of interest is measured using an appropriate biotinylated substrate that is incubated with the aforementioned kinase protein in the presence of (^33P) radiolabeled ATP. (^33P) Phosphorylation of the substrate is subsequently measured through binding of the phosphorylated substrate to streptavidine coated beads that are based on the scintillant poly(vinyl toluene) (PVT-Beads). The scintillation intensity is detected by imaging on Leadseeker.
All kinases are pre-diluted to a 10× working concentration prior to addition into the assay. The composition of the dilution buffer for each kinase is detailed below.
In a final reaction volume of 30 μl, CDK4/CyclinD1 (h) (2.5 μg/ml) is incubated with 50 mM Hepes pH 7.5, 8 mM NaF, 20 mM MgCl2, 1 mM DTT, 40 μg/ml of substrate GST-pRb, 2 nM [γ-^33P-ATP] (6.0 μCi/ml). After incubation of 60 minutes at room temperature, the reaction is stopped by addition of 40 μL of stop solution containing 8.7 mM EDTA, 0.17% Triton X-100, 25 mg/ml Glutathion SPA Beads (GE-healthcare). The plate is centrifuged and read for Scintillation topcount analyzer.

[6] = test system: U87-MG; experiment: Cellular proliferation assay (Alamar blue), U87-MG; type: cell-based; details: Homo sapiens, U-87 MG; 10% FCS; 72 hours with compound; Alamar blue 6 h; read-out: U87-MG (cellular proliferation assay, Table 4) (converted)
Outline: as §1

[7] = molecular target: PLK1 T210D (h) (Homo sapiens, UniProt P53350, T210D); experiment: PLK1 human kinase inhibition, SPA; type: biochemical; details: read-out: PLK1 pIC50 (converted)
Outline: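 Kinase incubated 40 min at room temperature with 0.1 μM ATP (2 nM [γ-33P]ATP tracer), 2 μM biotinylated peptide, pH 8.0 Hepes buffer with 2 mM MnCl2 and 1 mM DTT; enzyme at 0.125 ng/ml. Stopped with EDTA; 33P-peptide bound to streptavidin scintillant beads and imaged.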

[8] = test system: A2780; experiment: Cellular proliferation assay (Alamar blue), A2780; type: cell-based; details: Homo sapiens, 10% FCS, 72 hours with compound, Alamar blue 24 h, read-out: A2780 (cellular proliferation assay, Table 4) (converted)
Outline: as §1

[9] = test system: H1299; experiment: Cellular proliferation assay (Alamar blue), H1299; type: cell-based; details: Homo sapiens, NCI-H1299; 10% FCS; 72 hours with compound; Alamar blue 4 h
Outline: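 This proliferation assay on NCI-H1299 cells used an initial 24-hour compound-free incubation after seeding, followed by 72 hours of compound treatment with 10% FCS serum at 37° C. and 5% (v/v) CO2. Viable cells were quantified by a 4 h Alamar blue incubation and fluorescent plate reading at 544 nm/590 nm, and effects were expressed relative to control cells.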

[10] = molecular target: PLK2 (h) (Homo sapiens, UniProt Q9NYY3); experiment: PLK2 human kinase inhibition, SPA; type: biochemical; details: read-out: PLK2 pIC50 (converted)
Outline: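 33P incorporation into a biotinylated peptide (2 μM) was captured on streptavidin PVT beads and imaged on Leadseeker. Enzyme at 30 μg/ml, ATP 0.1 μM with 2 nM [γ-33P]ATP, Hepes pH 8.0 with MnCl2 and DTT. Incubation was 20 min at room temperature.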

GSK3β (h), sequence (P49841 whole entry): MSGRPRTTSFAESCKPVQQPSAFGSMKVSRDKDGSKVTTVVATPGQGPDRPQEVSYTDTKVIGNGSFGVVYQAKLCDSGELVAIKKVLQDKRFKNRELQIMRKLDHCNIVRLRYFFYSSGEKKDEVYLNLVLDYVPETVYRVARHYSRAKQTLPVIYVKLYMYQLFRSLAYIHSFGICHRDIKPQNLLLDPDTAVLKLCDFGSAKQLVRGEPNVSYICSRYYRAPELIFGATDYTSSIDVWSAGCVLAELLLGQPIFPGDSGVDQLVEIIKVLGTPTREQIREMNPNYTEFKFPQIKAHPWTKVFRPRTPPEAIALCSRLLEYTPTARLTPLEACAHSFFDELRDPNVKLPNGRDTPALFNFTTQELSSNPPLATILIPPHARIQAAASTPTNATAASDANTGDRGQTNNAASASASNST
PLK2 (h), sequence (Q9NYY3 whole entry): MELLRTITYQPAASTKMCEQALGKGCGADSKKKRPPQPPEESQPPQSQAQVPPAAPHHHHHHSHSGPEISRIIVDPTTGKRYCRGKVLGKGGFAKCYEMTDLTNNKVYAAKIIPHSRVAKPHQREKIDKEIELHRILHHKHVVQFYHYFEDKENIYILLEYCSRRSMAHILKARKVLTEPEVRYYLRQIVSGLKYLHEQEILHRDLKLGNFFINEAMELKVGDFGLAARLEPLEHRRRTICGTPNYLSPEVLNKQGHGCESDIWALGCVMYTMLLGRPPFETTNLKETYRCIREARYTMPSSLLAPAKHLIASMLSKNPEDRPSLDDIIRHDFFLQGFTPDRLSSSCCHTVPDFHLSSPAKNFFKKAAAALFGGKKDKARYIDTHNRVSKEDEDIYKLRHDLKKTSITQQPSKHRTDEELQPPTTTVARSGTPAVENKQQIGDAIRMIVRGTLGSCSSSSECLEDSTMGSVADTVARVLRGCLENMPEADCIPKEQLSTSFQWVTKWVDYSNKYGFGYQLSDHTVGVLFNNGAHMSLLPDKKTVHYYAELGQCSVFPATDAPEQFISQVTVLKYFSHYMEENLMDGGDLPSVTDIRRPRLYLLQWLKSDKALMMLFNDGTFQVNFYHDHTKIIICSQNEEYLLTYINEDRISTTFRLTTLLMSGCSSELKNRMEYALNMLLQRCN
PLK1 T210D (h), sequence (P53350 whole entry T210D): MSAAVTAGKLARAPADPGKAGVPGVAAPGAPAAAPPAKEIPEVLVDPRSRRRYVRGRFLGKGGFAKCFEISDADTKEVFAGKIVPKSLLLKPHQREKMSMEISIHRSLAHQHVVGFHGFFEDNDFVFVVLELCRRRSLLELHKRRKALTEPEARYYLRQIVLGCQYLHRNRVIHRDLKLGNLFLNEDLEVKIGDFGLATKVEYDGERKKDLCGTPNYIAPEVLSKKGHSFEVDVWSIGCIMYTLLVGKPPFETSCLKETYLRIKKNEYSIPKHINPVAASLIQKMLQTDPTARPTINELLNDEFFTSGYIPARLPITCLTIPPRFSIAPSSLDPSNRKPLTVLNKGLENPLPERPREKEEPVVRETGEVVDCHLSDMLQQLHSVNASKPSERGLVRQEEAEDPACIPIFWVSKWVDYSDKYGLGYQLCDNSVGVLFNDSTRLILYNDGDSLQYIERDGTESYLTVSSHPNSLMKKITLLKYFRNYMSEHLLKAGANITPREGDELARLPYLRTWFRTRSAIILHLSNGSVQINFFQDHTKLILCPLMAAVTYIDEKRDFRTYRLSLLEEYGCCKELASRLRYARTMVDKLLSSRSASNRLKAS
CDK4/CyclinD1 (h), sequence (P11802 whole entry): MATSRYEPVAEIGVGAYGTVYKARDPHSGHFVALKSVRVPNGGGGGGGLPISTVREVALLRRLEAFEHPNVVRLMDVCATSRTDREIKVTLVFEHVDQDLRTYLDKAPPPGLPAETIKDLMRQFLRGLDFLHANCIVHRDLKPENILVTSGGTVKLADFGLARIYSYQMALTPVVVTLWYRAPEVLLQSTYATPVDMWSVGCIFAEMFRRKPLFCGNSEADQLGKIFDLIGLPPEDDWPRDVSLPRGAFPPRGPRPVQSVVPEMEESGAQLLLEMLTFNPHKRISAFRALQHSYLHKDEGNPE
CDK4/CyclinD1 (h), sequence (P24385 whole entry partner): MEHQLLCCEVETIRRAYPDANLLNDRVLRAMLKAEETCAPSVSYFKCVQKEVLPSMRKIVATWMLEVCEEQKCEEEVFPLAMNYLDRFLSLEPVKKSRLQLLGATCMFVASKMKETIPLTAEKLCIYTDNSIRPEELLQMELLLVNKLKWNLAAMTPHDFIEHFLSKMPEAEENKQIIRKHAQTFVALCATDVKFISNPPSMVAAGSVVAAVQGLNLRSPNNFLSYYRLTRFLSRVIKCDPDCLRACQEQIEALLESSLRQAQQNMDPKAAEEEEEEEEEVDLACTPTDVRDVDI
PLK4 (h), sequence (O00444 whole entry): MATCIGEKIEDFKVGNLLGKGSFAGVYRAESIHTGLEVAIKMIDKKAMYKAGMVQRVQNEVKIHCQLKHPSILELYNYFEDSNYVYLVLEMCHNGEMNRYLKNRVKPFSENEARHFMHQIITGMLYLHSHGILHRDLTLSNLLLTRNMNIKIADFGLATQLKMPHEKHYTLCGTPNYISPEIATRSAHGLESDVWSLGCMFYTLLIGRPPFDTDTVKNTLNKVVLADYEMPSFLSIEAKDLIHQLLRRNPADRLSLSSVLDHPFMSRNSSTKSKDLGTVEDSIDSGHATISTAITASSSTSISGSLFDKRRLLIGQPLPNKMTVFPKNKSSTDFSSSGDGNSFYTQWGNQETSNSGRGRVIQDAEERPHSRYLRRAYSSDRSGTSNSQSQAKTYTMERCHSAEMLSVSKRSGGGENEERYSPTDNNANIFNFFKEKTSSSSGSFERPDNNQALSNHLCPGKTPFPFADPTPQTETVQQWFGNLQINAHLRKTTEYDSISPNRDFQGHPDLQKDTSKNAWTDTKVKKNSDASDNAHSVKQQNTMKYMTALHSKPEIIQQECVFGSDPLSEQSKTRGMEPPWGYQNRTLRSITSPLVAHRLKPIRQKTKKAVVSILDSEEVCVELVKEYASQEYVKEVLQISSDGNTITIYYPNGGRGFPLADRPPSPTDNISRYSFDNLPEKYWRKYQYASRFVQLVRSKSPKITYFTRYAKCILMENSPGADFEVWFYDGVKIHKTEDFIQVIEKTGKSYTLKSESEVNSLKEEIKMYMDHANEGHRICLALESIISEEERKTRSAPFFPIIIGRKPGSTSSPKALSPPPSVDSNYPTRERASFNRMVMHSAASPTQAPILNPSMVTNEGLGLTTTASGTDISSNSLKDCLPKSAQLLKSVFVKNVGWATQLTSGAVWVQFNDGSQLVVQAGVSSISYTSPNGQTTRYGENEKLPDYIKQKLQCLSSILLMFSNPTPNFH

Row | IC50 [1] | IC50 [2] | IC50 [3] | IC50 [4] | IC50 [5] | IC50 [6] | IC50 [7] | IC50 [8] | IC50 [9] | IC50 [10] | Structure (SMILES)
1 | 0.372 µM | 0.575 µM | > 10 µM | 8.32 µM | 4.47 µM | 7.94 µM | > 10 µM | 7.08 µM | > 10 µM | > 10 µM | O=C1NCc2cc(ccc2N2CCOCC2)Nc2nccc(n2)-c2cccc(c2)CN2CCC[C@@H]12 [Compound 15]
2 | 6.03 µM | 5.25 µM | > 3.02 µM | > 10 µM | > 10 µM | > 10 µM | > 10 µM | > 10 µM | > 10 µM | > 10 µM | O=C1CN2CCN(CC2)Cc2cc(ccc2N2CCOCC2)Nc2nccc(n2)-c2cccc(c2)CN1 [Compound 20]
3 | 0.195 µM | 0.0741 µM | > 10 µM | > 10 µM | > 10 µM | > 10 µM | > 10 µM | > 10 µM | > 10 µM | > 10 µM | COc1cc2cc(c1OC)CN1CCC[C@H]1C(=O)NCc1cccc(c1)-c1ccnc(n1)N2 [Compound 23]
4 | 0.0676 µM | 0.0977 µM | 8.13 µM | 2.19 µM | > 10 µM | > 10 µM | > 10 µM | 4.17 µM | 2.45 µM | > 10 µM | O=C1NCc2cccc(c2)-c2ccnc(n2)Nc2ccc(C(=O)N3CCOCC3)c(c2)CN2CCC[C@@H]12 [Compound 26]
5 | 0.186 µM | 0.178 µM | > 10 µM | 5.13 µM | 3.31 µM | > 10 µM | > 10 µM | > 10 µM | > 10 µM | > 10 µM | O=C1NCc2cccc(c2)-c2ccnc(n2)Nc2cc(cc(C(=O)N3CCOCC3)c2)CN2CCC[C@@H]12 [Compound 32]
6 | 0.204 µM | 0.204 µM | > 10 µM | 1.32 µM | 1.35 µM | 1.45 µM | > 10 µM | 3.39 µM | > 10 µM | > 10 µM | CN(C)C(=O)c1cc2cc(c1)Nc1nccc(n1)-c1cccc(c1)CNC(=O)[C@@H]1CCCN1C2 [Compound 35]

Continued, molecule first:

Row | Structure (SMILES) | IC50 [1] | IC50 [2] | IC50 [3] | IC50 [4] | IC50 [5] | IC50 [6] | IC50 [7] | IC50 [8] | IC50 [9] | IC50 [10]
7 | COc1ccc2cc1CN[C@@H](CO)C(=O)N(C)CCCN(C)c1ccc(cn1)-c1ccnc(n1)N2 [Compound 11] | 2.09 µM | 0.933 µM | > 10 µM | > 10 µM | > 10 µM | > 10 µM | > 10 µM | > 10 µM | > 10 µM | > 10 µM
8 | O=C1NCc2ccc(cc2)-c2ccnc(n2)Nc2ccc(N3CCOCC3)c(c2)CN2CCC1CC2 [Compound 12] | ~10.5 µM | 0.49 µM | 9.33 µM | 3.8 µM | 1.58 µM | 0.955 µM | > 10 µM | 1.74 µM | 1.58 µM | > 10 µM
9 | COc1cc2cc(c1OC)CN1CCC[C@H]1C(=O)N(C)CCN(C)c1cc(ccn1)-c1ccnc(n1)N2 [Compound 17] | 0.851 µM | 2.69 µM | > 10 µM | > 10 µM | > 10 µM | > 10 µM | > 10 µM | > 10 µM | > 10 µM | > 10 µM
10 | O=C1NCc2cccc(c2)-c2ccnc(n2)Nc2ccc(N3CCOCC3)c(c2)CN[C@H]1Cc1ccccc1 [Compound 18] | 0.389 µM | 0.646 µM | > 10 µM | 6.76 µM | > 10 µM | 6.76 µM | > 10 µM | 9.33 µM | > 10 µM | > 10 µM
11 | CN1CCN(C(=O)c2ccc3cc2CN2CCC[C@H]2C(=O)NCc2cccc(c2)-c2ccnc(n2)N3)CC1 [Compound 25] | 0.0813 µM | 0.0933 µM | > 10 µM | 3.72 µM | > 10 µM | > 10 µM | > 10 µM | 4.47 µM | 3.31 µM | > 10 µM
12 | O=C1NCc2cccc(c2)-c2ccnc(n2)Nc2ccc(N3CCOCC3)c(c2)CN2C[C@@H](O)C[C@@H]12 [Compound 27] | 0.141 µM | 0.11 µM | 3.8 µM | 0.891 µM | 1.78 µM | 5.37 µM | > 10 µM | 0.661 µM | 2.95 µM | > 10 µM
13 | CN1CCN(C(=O)c2cc3cc(c2)Nc2nccc(n2)-c2cccc(c2)CNC(=O)[C@@H]2CCCN2C3)CC1 [Compound 34] | 0.525 µM | 0.186 µM | > 10 µM | 5.89 µM | 8.71 µM | 8.71 µM | > 10 µM | > 10 µM | 6.17 µM | > 10 µM
14 | O=C(NC1CCOCC1)c1cc2cc(c1)Nc1nccc(n1)-c1cccc(c1)CNC(=O)[C@@H]1CCCN1C2 [Compound 37] | 0.676 µM | 0.245 µM | > 10 µM | > 10 µM | > 10 µM | > 10 µM | > 10 µM | > 10 µM | > 10 µM | > 10 µM
15 | CN1CCC(NC(=O)c2cc3cc(c2)Nc2nccc(n2)-c2cccc(c2)CNC(=O)[C@@H]2CCCN2C3)CC1 [Compound 38] | 0.186 µM | 0.263 µM | 6.31 µM | 1.23 µM | 3.47 µM | 1 µM | > 10 µM | 2.69 µM | > 10 µM | > 10 µM
16 | CN(C)CCNC(=O)c1cc2cc(c1)Nc1nccc(n1)-c1cccc(c1)CNC(=O)[C@@H]1CCCN1C2 [Compound 39] | 0.363 µM | 0.282 µM | 6.76 µM | 1.23 µM | 1.12 µM | 1.07 µM | > 10 µM | 2.09 µM | > 10 µM | > 10 µM
17 | O=C1NCc2cc(ccc2N2CCOCC2)Nc2nccc(n2)-c2cccc(c2)CCN2CCC[C@@H]12 [Compound 43] | 0.186 µM | 0.363 µM | 5.62 µM | 1.78 µM | 0.427 µM | > 10 µM | > 10 µM | 2.51 µM | > 10 µM | > 10 µM
18 | COCCNC(=O)c1cc2cc(c1)Nc1nccc(n1)-c1cccc(c1)CNC(=O)[C@@H]1CCCN1C2 [Compound 44] | 0.166 µM | 0.407 µM | > 10 µM | 1.82 µM | 3.63 µM | 1.91 µM | > 10 µM | 6.03 µM | > 10 µM | > 10 µM
